Measurements from patent publication US20240245633A1, “ROR Gamma Agonists as Enhancers of Protective Immunity” (University of Florida Research Foundation, Incorporated, priority 2015, published 2024).
Marks after values point to notes of the source that are not given here.

Experiments:
[1] = test system: EL4 T lymphocytes; assay: qPCR gene expression in PMA/ionomycin stimulated EL4 cells; assay type: cell-based, murine; conditions: PMA/ionomycin 5 hr
Method: Here we used murine EL4 T lymphocytes or human Jurkat T cells as model systems to analyze gene expression upon T cell activation. Following treatment of cells with Phorbol 12-myristate 13-acetate (PMA) and ionomycin, the expression of granzyme B (cytotoxicity marker), PD-1 (immune checkpoint) and the RORγt target gene IL17 were analyzed by qPCR.
(§1) Gene expression and Cell sorting. Jurkat T cells were pre-incubated with compounds for 48 hr and activated with phorbol 12-myristate 13-acetate (PMA, 50 ng/mL; Sigma) and ionomycin (1 μg/mL; Sigma) for 5 hr. For qPCR, mRNA was isolated with an RNeasy midi kit using DNase I (Qiagen), and cDNA was synthesized with high capacity cDNA Reverse Transcription kit (Applied Biosystems). IL17A, PD-1, and granzyme B gene expression were normalized to the expression of GAPDH. The sequence of primers used in this study are found in Table 2. For cell sorting, activated Jurkat T cells were stained with APC conjugated anti-human PD-1 antibody (eBioscience). Cell sorting was performed using LSRII (BD Bioscience).

[2] = test system: EL4 cells; assay: PD-1 surface expression in EL4 cells by flow cytometry; assay type: cell-based, murine; conditions: compound 48 hr
Method: (§2) Using flow cytometery surface PD-1 expression was analyzed to determine if the decrease in gene expression of PD-1 correlates to a decrease of the protein on the cell surface, Cell: surface PD-1 expression was measured in murine and human T cell lines as well as in ex vivo differentiated murine TH17 cells. […] Next we examined the impact of compound treatment on differentiated murine TH17 cells. […] To determine if there was an increase in the active T cell population during TH17 cell differentiation, the population of CD62L^−PD1^− double negative cells was measured using flow cytometry. […] To determine if the effects of SR0987 on PD-1 expression would be observed in a human cell line, Jurkat T cells were treated with the compound.
as §1, with “Cell sorting was performed using LSRII (BD Bioscience).” left out

[3] = test system: differentiated TH17 cells; assay: TH17 cell differentiation, flow cytometry; assay type: cell-based, murine
Method: as §2
TH17 cell differentiation. For naïve T cell differentiation, CD4^+T cells were enriched by negative selection using a magnetic-activated cell sorter kit (Millipore). Enriched CD4+ T cells activated with 5 μg/mL of plate-abound anti CD3 antibody and 1 μg/mL of anti-CD28 antibody in the presence of 20 μg/mL of anti-IFNγ, 20 μg/mL of anti-IL-4, 1 ng/mL of TGFβ, AND 10 ng/mL of IL-6. Four-five days post differentiation, all cells were stimulated for 5 hr with 5 ng/mL of phorbol-12-myristate-13-acetate (Sigma) and 500 ng/mL of ionomycin (Sigma) contained with brefeldin A solution (eBioscience).

[4] = test system: Jurkat T cells; assay: PD-1 surface expression in Jurkat T cells; assay type: cell-based, human
Method: as §2
as §1, with “Cell sorting was performed using LSRII (BD Bioscience).” left out

[5] = target: T1, RORγ LBD / SRC1-3 NR box peptide (Homo sapiens, UniProt P51449); assay: NR box peptide interaction assay (TR-FRET); assay type: biochemical; conditions: concentration response
T1 sequence (P51449 269-508 limits assumed): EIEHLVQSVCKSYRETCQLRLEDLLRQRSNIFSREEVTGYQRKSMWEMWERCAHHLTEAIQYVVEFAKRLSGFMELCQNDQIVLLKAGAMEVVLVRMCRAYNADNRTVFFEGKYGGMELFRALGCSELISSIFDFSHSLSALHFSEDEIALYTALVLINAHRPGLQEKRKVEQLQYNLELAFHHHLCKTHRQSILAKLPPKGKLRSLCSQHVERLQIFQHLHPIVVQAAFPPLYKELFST
Method: NR box peptide interaction assay. A TR-FRET-based interaction assay was used. […] The mixtures were incubated for 2 hr at R.T., and fluorescence intensity was measured on an Envision pate reader with excitation at 340 nm and emission at 490 nm and 520 nm. The ratio of intensity at 520 nm/490 nm was used to calculate cofactor recruitment activity.

[6] = target: T2, RORγt LBD pretreated with ursolic acid (Homo sapiens, UniProt P51449); assay: Differential HDX-MS of RORγt pretreated with ursolic acid ± compound; assay type: binding
T2 construct: 5 μL of a 10 μM RORγt LBD solution (Apo or in complex with 10-excess compound)
T2 sequence (P51449 269-508 limits assumed): T1 sequence (P51449 269-508 limits assumed)
From the text: While the mechanism of action of RORγt agonists on regulation of the immune checkpoint receptor PD-1 is unclear, a correlation between RORγt and PD-1 expression has been observed in PD-1 knockout mice Z Regardless, to gain insights into the structural mechanism for agonist activity we examined the impact of putative agonist ligands on the conformational dynamics of RORγt. To achieve this, we utilized differential hydrogen/deuterium exchange (HDX) mass spectrometry.
HDX-MS. Solution-phase amide HDX was performed with a fully automated system as described previously with minor modifications^30,31. For differential HDX experiments, 5 μL of a 10 μM RORγt LBD solution (Apo or in complex with 10-excess compound) was diluted to 25 μL with D20-containing HDX buffer, and incubated at 4° C. for; 10 s, 30s, 60s, 900s, and 3,600s, Following on-exchange, unwanted forward or back exchange is minimized and the protein is denatured by dilution to 50 μL with 0.1% TFA in 3M urea (held at 4° C., pH 2.5). Samples are then passed across an immobilized pepsin column (prepared in house) at 50 μL min−1 (0.1% TFA, 15° C.) and the resulting peptides are trapped onto a Ce trap cartridge (Thermo Fisher, Hypersil Gold). Peptides were then gradient eluted (4% CH3CN to 40% CH3CN, 0,3% formic acid over 5 minutes, 4° C.) across a 1 mm×50 mm Cia HPLC column (Hypersil Gold, Thermo Fisher) and electrosprayed directly into a high resolution orbitrap mass spectrometer (Exactive, Thermo Fisher). Percent deuterium exchange values for peptide isotopic envelopes at each time point were calculated and processed using HDX Workbench^32 and overlaid onto RORγt crystal structures using pyMOL (DeLano Scientific). HDX data is presented as an average of three individual replicates across […] time points (10s, 60s, 300s, 900s, and 3600s).

[7] = target: T3, RORγt (Homo sapiens, UniProt P51449); conditions: Circular Dichroism; cited from earlier work
T3 sequence (P51449 1-497 isoform P51449-2): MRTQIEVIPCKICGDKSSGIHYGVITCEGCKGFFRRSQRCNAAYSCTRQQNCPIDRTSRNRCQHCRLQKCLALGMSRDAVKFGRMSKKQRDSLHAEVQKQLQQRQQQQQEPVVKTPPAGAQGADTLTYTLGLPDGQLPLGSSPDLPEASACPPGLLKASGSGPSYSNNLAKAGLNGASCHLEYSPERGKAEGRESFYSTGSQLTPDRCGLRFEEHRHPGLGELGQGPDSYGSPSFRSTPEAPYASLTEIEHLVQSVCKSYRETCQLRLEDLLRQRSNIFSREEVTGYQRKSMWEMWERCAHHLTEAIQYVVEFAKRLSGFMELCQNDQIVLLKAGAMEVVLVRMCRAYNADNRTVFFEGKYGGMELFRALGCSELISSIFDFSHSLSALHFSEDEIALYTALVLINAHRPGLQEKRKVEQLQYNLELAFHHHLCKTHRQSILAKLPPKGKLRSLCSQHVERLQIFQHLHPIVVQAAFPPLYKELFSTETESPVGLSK

[8] = test system: ROR target genes FGF21 and G6Pase; conditions: in cells and in vivo; cited from earlier work
[9] = target: ligand binding domain (LBD) of RORγt (Homo sapiens, UniProt P51449); conditions: read-out: IC50, competitive radioligand binding; cited from earlier work
[10] = target: T4, Gal4-RORγ (Homo sapiens, UniProt P51449); assay: cell-based; conditions: HEK-293T, read-out: fold induction of reporter gene expression
T4 sequence (P51449 269-508 limits assumed): T1 sequence (P51449 269-508 limits assumed)

O=C(Nc1ccc(C(O)(C(F)(F)F)C(F)(F)F)cc1)c1ccccc1Cl [SR0987, 2-chloro-N-(4-(1,1,1,3,3,3-hexafluoro-hydroxypropan-2-yl)phenyl)benzamide]
IL17 mRNA expression [1]: further increase in expression of IL17
PD-1 mRNA expression [1]: decrease in expression of PD-1
granzyme B mRNA expression [1]: did not impact the expression of granzyme B
surface expression of PD-1 [2]: statistically significant reduction of the surface expression of PD-1
CD62L−PD1−CD4+ cell population ([3]; compared to DMSO treated cells): statistically significant increase
IL17 production (intracellular staining of IL17A) ([3]; murine TH17 cells): trend towards increased IL17 production
surface PD-1 expression ([3]; murine TH17 cells): repress surface PD-1 expression
cell surface PD-1 expression [4]: decreased cell surface PD-1 expression

O=C(Nc1ccc(C(O)(C(F)(F)F)C(F)(F)F)cc1)c1ccc(C(F)(F)F)cc1 [SR1078]
interaction of RORγt with SRC1-3 NR box peptide [5]: concentration dependent increase in interaction
protection to solvent exchange in H12 ([6]; RORγt exposed to ursolic acid, then compound): induced protection to solvent exchange in H12
Differential HDX kinetics, peptide TEIEHLVQ ([6]; UA pretreated, 268-275, charge 2, H1): −2(3)*
Differential HDX kinetics, peptide TEIEHLVQSVC ([6]; UA pretreated, 268-278, charge 2, H1): 0(3)*
Differential HDX kinetics, peptide TEIEHLVQSVCKS ([6]; UA pretreated, 268-280, charge 3, H1): 1(4)*
Differential HDX kinetics, peptide TEIEHLVQSVCKSYRETCQ ([6]; UA pretreated, 268-286, charge 3, H1): 0(3)*
Differential HDX kinetics, peptide TEIEHLVQSVCKSYRETCQ ([6]; UA pretreated, 268-286, charge 4, H1): 1(3)*
Differential HDX kinetics, peptide RLEDL ([6]; UA pretreated, 288-292, charge 1, H2): −2(4)*
Differential HDX kinetics, peptide RLEDLL ([6]; UA pretreated, 288-293, charge 1, H2): −3(5)*
Differential HDX kinetics, peptide EVTGYQRKSMWEM ([6]; UA pretreated, 304-316, charge 2, H3/H4): 1(4)*
Differential HDX kinetics, peptide WERCAHHLTEAIQ ([6]; UA pretreated, 317-329, charge 3, H4): 0(1)*
Differential HDX kinetics, peptide WERCAHHTEAIQY ([6]; UA pretreated, 317-330, charge 3, H4): 1(1)*
Differential HDX kinetics, peptide WEGAKRLSGF ([6]; UA pretreated, 331-341, charge 2, H4/H5): 0(2)*
Differential HDX kinetics, peptide FAKRLSGF ([6]; UA pretreated, 334-341, charge 2, H4/H5): 0(2)*
Differential HDX kinetics, peptide CQNDQM ([6]; UA pretreated, 345-352, charge 1, H5/H6): 0(1)*
Differential HDX kinetics, peptide CRAYNADNRTVF ([6]; UA pretreated, 368-377, charge 2, B1): 2(1)*
Differential HDX kinetics, peptide YNADNRTVF ([6]; UA pretreated, 369-377, charge 2, B1): 1(3)*
Differential HDX kinetics, peptide FEGKYGGMEL ([6]; UA pretreated, 378-387, charge 2, B2/H7): 2(3)*
Differential HDX kinetics, peptide FRALGCSEL ([6]; UA pretreated, 388-395, charge 2, H7/H8): −1(2)*
Differential HDX kinetics, peptide LISSIFDFSHSLSAL ([6]; UA pretreated, 396-410, charge 2, H8): 2(2)*
Differential HDX kinetics, peptide ISSIFD ([6]; UA pretreated, 397-407, charge 1, H8): 1(2)*
Differential HDX kinetics, peptide ISSIFDFSHSLSAL ([6]; UA pretreated, 397-410, charge 2, H8): 2(2)*
Differential HDX kinetics, peptide IFDFSHSLSAL ([6]; UA pretreated, 400-410, charge 2, H8): 3(2)*
Differential HDX kinetics, peptide DFSHSKSAL ([6]; UA pretreated, 402-410, charge 2, H8): 2(2)*
Differential HDX kinetics, peptide FSHSLSAL ([6]; UA pretreated, 403-410, charge 2, H8): 2(3)*
Differential HDX kinetics, peptide AXLPPXGKLRSLCSQ ([6]; UA pretreated, 454-478, charge 3, H11): 0(4)*
Differential HDX kinetics, peptide HVERLQIFQHLHPIWQ ([6]; UA pretreated, 479-495, charge 2, H11): −6(3)*
Differential HDX kinetics, peptide AAFPPLYKEL ([6]; UA pretreated, 496-505, charge 2, H12): −7(2)*
Differential HDX kinetics, peptide AAFPPLYKELF ([6]; UA pretreated, 496-506, charge 2, H12): −5(2)*
Differential HDX kinetics, peptide HFSEDEIAL ([6]; UA pretreated, charge 2, H9): 0(1)*
Differential HDX kinetics, peptide QIFQHLHPIWQ ([6]; UA pretreated, charge 2, H11): −10(3)*
Differential HDX kinetics, peptide TEIEHLVQSVCKSYRETCQL ([6]; UA pretreated, charge 3, H1): 0(4)*
Differential HDX kinetics, peptide VRMCRAYNADNRTVF ([6]; UA pretreated, charge 3, H6/B1): 1(1)*
interaction with RORγt via thermal shift assay [7]: direct interaction
expression of ROR target genes FGF21 and G6Pase [8]: induced the expression of the ROR target genes FGF21 and G6Pase
IC50 [9]: ~15 µM
fold induction at 30 µM [10]: ≥ 2
